Assay results as given in patent publication US20150368195A1, “INDOLINE COMPOUNDS FOR TREATMENT AND/OR PREVENTION OF INFLAMMATION DISEASES” (Taipei Medical University, priority 2014, published 2015).
Like-named read-outs stand apart in the source and are kept apart here.

How the values were obtained:
interleukin-6 (IL-6) = test: LPS-induced IL-6 production in RAW 264.7 macrophages; conditions: Mus musculus, RAW264.7, read-out: IC50 IL-6
[1] = test system: tumor necrosis factor-α (TNF-α); test: LPS-induced TNF-α production in RAW 264.7 macrophages; conditions: Mus musculus, RAW264.7, read-out: IC50 TNF-α
nitric oxide (NO) = test: LPS-induced nitric oxide production in RAW 264.7 macrophages; assay type: cell-based, Mouse; conditions: for IC50: Mus musculus, RAW264.7, LPS-stimulated RAW 264.7 macrophages, mean ± SEM, three experiments
Procedure: Nitrite concentration was determined using a dilution of sodium nitrite as a standard.
(§1) Furthermore, the anti-inflammatory effects of MPT0G009 was evaluated. […] These supernatants were then assayed for PGE2, NO, and IL-6.

prostaglandin E2 (PGE2) [2] = test: LPS-induced PGE2 production in RAW 264.7 macrophages; assay type: cell-based, Mouse; conditions: for IC50: Mus musculus, RAW264.7, LPS-stimulated RAW 264.7 macrophages, mean ± SEM, three experiments
Procedure: as §1

p21 = p21 expression by flow cytometry or western blot in RA-FLS; assay type: cell-based; conditions: 24 h, 1 μM MPT0G009 or 3 μM SAHA
Text: (§2) (FIG. 1A) Structure of MPT0G009. […] Results in (FIGS. 1B-E) and (FIG. 1G) are means±SEM's for three independent experiments, *p<0.05 and **p<0.01 compared with no added inhibitor.

[3] = test system: inducible nitric oxide synthase (iNOS); test: LPS-induced iNOS protein expression, Western blot, RAW264.7; assay type: cell-based, Mouse; conditions: RAW264.7, 0.1-10 μM, LPS 25 ng/mL 24 h
Procedure: (§3) Then the cells were harvested and whole cell extracts were prepared for Western blot analysis for iNOS and COX-2. The relative protein expressions are presented as mean±SEM for four replicates. *p<0.05 compared to the LPS-treated group.

cyclooxygenase-2 (COX-2) = test: LPS-induced COX-2 protein expression, Western blot, RAW264.7; assay type: cell-based, Mouse; conditions: RAW264.7, 0.1-10 μM, LPS 25 ng/mL 24 h
Procedure: as §3

[4] = test system: adjuvant-induced arthritis; test: adjuvant-induced arthritis (AIA) model; conditions: day 21, ELISA; MPT0G009 25 mg/kg, SAHA 200 mg/kg, indomethacin 1 mg/kg
Procedure: (FIG. 8B) Hind paw volumes in the indicated group of rats were measured using a digital plethysmometer on the indicated day after AIA induction. […] (FIG. 8D) Serum levels of interleukin (IL)-1β (left panel) and IL-6 (right panel) on day 21 as measured by enzyme-linked immunosorbent assay (ELISA). […] (FIG. 8F) The bone mineral density (BMD, in mg/mm^3) and the bone mineral content (BMC, in mg) values for the bone tissue of the tarsus were analyzed using CT Analysis Software.

HIG-82 synoviocytes = test: SRB anti-proliferation assay; assay type: cell-based; conditions: 24 or 48 h incubation
Text: as §2

RA-FLS [5] = test: SRB anti-proliferation assay; assay type: cell-based; conditions: 24 or 48 h incubation
Text: as §2

RA-FLS [6] = test: cell cycle distribution by flow cytometry (propidium iodide); assay type: cell-based; conditions: 24 h
Text: as §2

RAW264.7 macrophages = test: M-CSF/RANKL-induced osteoclast formation; assay type: cell-based, Mouse; conditions: 5 nM MPT0G009 or 50 nM SAHA; M-CSF/RANKL 50 ng/mL, 5 days
Procedure: Cells were then tartrate resistant acid phosphatase (TRAP) stained, and the numbers of TRAP-positive multinuclear cells were counted. […] Images are at ×100 magnification, and the arrows indicate differentiated osteoclasts. (FIG. 6C) RAW264.7 cells were treated as in (FIG. 6B), then incubated with a fluorescein isothiocyanate (FITC)-conjugated anti-CD51/61 antibody and analyzed by flow cytometry. (FIGS. 6D and 6E) RAW264.7 cells (1×10^5) were transfected with 1 μg of pGL4.32[luc2P/NF-κB-RE/Hygro] (FIG. 6D) or pGL4.30[luc2P/NFAT-RE/Hygro] (FIG. 6E) for 24 h and then incubated for 30 min with or without MPT0G009 (5 nM). Then RANKL (50 ng/mL) was added and incubation was continued for an additional 24 h, after which luciferase activity was determined. Results in (FIGS. 6A, 6D, and 6E) are the means±SEM's for three independent experiments. **p<0.01 compared with the indicated controls.
Bone destruction is one characteristic of RA pathogenesis, resulting in joint dysfunction. Differentiation of mouse macrophages osteoclast-like cells can be induced in the presence of M-CSF and RANKL, which has been used as a model to investigate osteoclast differentiation. […] Subsequently, multinucleate tartrate resistant acid phosphatase (TRAP)-positive cells were counted.

HDAC3 = test: HDAC isoform protein levels, Western blot, RA-FLS; assay type: cell-based; conditions: 12 or 24 h; 1 μM MPT0G009 or 30 μM SAHA
Procedure: Then cells were harvested and cell lysates were prepared for Western blot analysis of the indicated proteins. (FIG. 5C) RA-FLS were incubated for 1 h with or without the proteasome inhibitor, MG132 (1 μM). […] Results shown are representative of three independent experiments.

[7] = test system: carrageenan-induced hind paw edema; test: carrageenan-induced hind paw edema; conditions: for carrageenan-induced hind paw edema: oral, 1 h before carrageenan, compound 9 25 mg/kg, SAHA 200 mg/kg, Indomethacin 5 mg/kg, measured 3 h after
Procedure: A 0.5% (w/v) suspension of carrageenan in normal saline was administered to male Wistar rats (7-weeks) by intradermal injection into the base of the right hind paw. […] A positive control group was included in which rats were pretreated with 5 mg/kg Indomethacin. […] The results are expressed as the mean±SEM, with n=5. *p<0.05 compared to the control group; #p<0.05 for the comparison of the indicated groups.
Animals were divided into four groups (n=5). 0.5% (w/v) suspension of carrageenan in normal saline was administered to male Wistar rats (7-weeks) by intradermal injection into the base of the right hind paw. […] A positive control group was included in which rats were pretreated with 5 mg/kg Indomethacin. Three hours after carrageenan administration, the thickness and volume of the right hind paw were measured by digital caliper and digital plethysmometer (Diagnostic & Research Instruments CO., Ltd, Taipei, Taiwan), respectively.

[8] = rats, SAHA (reference 30), cited from earlier work
IL-6 = test: IL-1β-induced IL-6 production by RA-FLS; assay type: cell-based; conditions: MPT0G009 0.1, 1, 10 μM; SAHA 0.3, 3, 30 μM; IL-1β 10 ng/mL 24 h
Procedure: as §2, §1

prostaglandin E2 (PGE2) [9] = test: LPS-induced PGE2 production by RA-FLS; assay type: cell-based; conditions: MPT0G009 0.1, 1, 10 μM; SAHA 0.3, 3, 30 μM; LPS 25 ng/mL 24 h
Procedure: as §2, §1

[10] = MPT0G009 0.1, 1, 10 μM, SAHA 0.3, 3, 30 μM, LPS 25 ng/mL 24 h

Compound: CN(C)c1cccc2c(S(=O)(=O)N3CCc4cc(C=CC(=O)NO)ccc43)cccc12 [Compound 15, 3-[1-(5-Dimethylaminonaphthalene-1-sulfonyl)-2,3-dihydro-1H-indol-5-yl]-N-hydroxyacrylamide]
- IC50 (interleukin-6 (IL-6)): 90 nM
- IC50 [1]: 2110 ± 280 nM
- IC50 (nitric oxide (NO)): > 10000 nM
- IC50 (prostaglandin E2 (PGE2) [2]): 2700 ± 430 nM
- melting point: 142 to 143 °C

Compound: O=C(CCCCCCC(=O)Nc1ccccc1)NO [SAHA, Suberanilohydroxamic Acid, reference compound]
- NO production by RAW264.7 cells (nitric oxide (NO); [10]): inhibited
- PGE2 production by RAW264.7 cells (prostaglandin E2 (PGE2) [2]; [10]): inhibited
- expression of p21 (p21): significantly increased
- iNOS protein expression [3]: significantly inhibited
- iNOS protein expression ([3]; listed as SAHA (1)): concentration-dependently inhibitory effects
- COX-2 protein expression (cyclooxygenase-2 (COX-2)): significantly inhibited
- COX-2 protein expression (cyclooxygenase-2 (COX-2); listed as SAHA (1)): concentration-dependently inhibitory effects
- serum levels of IL-1β [4]: significant decreases
- serum levels of IL-6 [4]: significant decreases
- proliferation of HIG-82 synoviocytes (HIG-82 synoviocytes): concentration-dependent anti-proliferative effects
- proliferation of RA-FLS (RA-FLS [5]): concentration-dependent anti-proliferative effects
- subG1 peak (cellular apoptosis) (RA-FLS [6]; MPT0G009 1-1000 nM, SAHA 3-3000 nM): did not increase the subG1 peak
- G0/G1 phase arrest (RA-FLS [6]; all concentrations of both agents): G0/G1 phase arrest was observed
- expression of osteoclast-specific marker CD51/61 (RAW264.7 macrophages): no effect
- formation of M-CSF/RANKL-induced TRAP-positive cells (RAW264.7 macrophages): no effect
- levels of HDAC3 in RA-FLS (HDAC3): no effect
- paw thickness reduced compared to control ([7]; SAHA 200 mg/kg oral, 3 h after carrageenan): 15.7%
- carrageenan-induced hind paw edema [7]: significantly inhibited
- carrageenan-induced hind paw edema ([7]; listed as SAHA (1)): suppress
- AUC(0-inf) ([8]; iv 2 mg/kg): 278 ng·h/mL
- CL ([8]; iv 2 mg/kg): 134 mL/min/kg
- T1/2 ([8]; iv 2 mg/kg): 38.4 min
- Vd ([8]; iv 2 mg/kg): 3.92 L/kg
- AUC(0-inf) ([8]; po 5 mg/kg): 49.40 ng·h/mL
- Cmax ([8]; po 5 mg/kg): 83.90 ng/mL
- F ([8]; po 5 mg/kg): 6.9%
- T1/2 ([8]; po 5 mg/kg): 67.8 min
- Tmax ([8]; po 5 mg/kg): 10.2 min
- IL-6 production by RA-FLS (IL-6): inhibited
- PGE2 production by RA-FLS (prostaglandin E2 (PGE2) [9]): inhibited

Compound: O=C(C=Cc1ccc2c(c1)CCN2S(=O)(=O)c1ccc([N+](=O)[O-])cc1)NO [Compound 13, 3-[1-(4-Nitrobenzenesulfonyl)-2,3-dihydro-1H-indol-5-yl]-N-Hydroxyacrylamide]
- IC50 (interleukin-6 (IL-6)): 20 nM
- IC50 [1]: 1370 ± 180 nM
- IC50 (nitric oxide (NO)): 3110 ± 370 nM
- IC50 (prostaglandin E2 (PGE2) [2]): 1760 ± 260 nM
- melting point: 163 to 165 °C

Compound: O=C(/C=C/c1ccc2c(ccn2S(=O)(=O)c2ccccc2)c1)NO [Compound 6]
- IC50 (interleukin-6 (IL-6)): 170 nM
- IC50 [1]: 3730 ± 260 nM
- IC50 (nitric oxide (NO)): > 10000 nM
- IC50 (prostaglandin E2 (PGE2) [2]): 5130 ± 480 nM

Compound: O=C(C=Cc1ccc2c(c1)CCN2S(=O)(=O)c1ccc(Cl)cc1)NO [Compound 12, 3-[1-(4-Chlorobenzenesulfonyl)-2,3-dihydro-1H-indol-5-yl]-N-hydroxyacrylamide]
- IC50 (interleukin-6 (IL-6)): 20 nM
- IC50 [1]: 1010 ± 110 nM
- IC50 (nitric oxide (NO)): 5490 ± 480 nM
- IC50 (prostaglandin E2 (PGE2) [2]): 1040 ± 150 nM
- melting point: 159 to 160 °C

Compound: COc1ccc2c(c1)c(CC(=O)O)c(C)n2C(=O)c1ccc(Cl)cc1 [Indomethacin, reference compound]
- serum levels of IL-1β [4]: significant decreases
- serum levels of IL-6 [4]: significant decreases
- carrageenan-induced hind paw edema [7]: suppressed

Compound: Nc1ccc(S(=O)(=O)N2CCc3cc(C=CC(=O)NO)ccc32)cc1 [Compound 14, 3-[1-(4-Aminobenzenesulfonyl)-2,3-dihydro-1H-indol-5-yl]-N-hydroxyacrylamide]
- IC50 (interleukin-6 (IL-6)): > 10000 nM
- IC50 [1]: > 10000 nM
- IC50 (nitric oxide (NO)): > 10000 nM
- IC50 (prostaglandin E2 (PGE2) [2]): > 10000 nM
- melting point: 97 to 99 °C

Compound: COc1ccc(S(=O)(=O)N2CCc3cc(C=CC(=O)NO)ccc32)cc1OC [Compound 10, 3-[1-(3,4-Dimethoxybenzenesulfonyl)-2,3-dihydro-1H-indol-5-yl]-N-hydroxyacrylamide]
- IC50 (interleukin-6 (IL-6)): 10 nM
- IC50 [1]: 620 ± 120 nM
- IC50 (nitric oxide (NO)): 7310 ± 660 nM
- IC50 (prostaglandin E2 (PGE2) [2]): 1900 ± 210 nM
- melting point: 192 to 193 °C

Compound: O=C(C=Cc1ccc2c(c1)CCN2S(=O)(=O)c1ccc(F)cc1)NO [Compound 11, 3-[1-(4-Fluorobenzenesulfonyl)-2,3-dihydro-1H-indol-5-yl]-N-hydroxyacrylamide]
- IC50 (interleukin-6 (IL-6)): 30 nM
- IC50 [1]: 1040 ± 250 nM
- IC50 (nitric oxide (NO)): 4410 ± 310 nM
- IC50 (prostaglandin E2 (PGE2) [2]): 1310 ± 160 nM
- melting point: 129 to 131 °C

Compound: COc1cccc(S(=O)(=O)N2CCc3cc(C=CC(=O)NO)ccc32)c1 [Compound 8, 3-[1-(3-Methoxybenzenesulfonyl)-2,3-dihydro-1H-indol-5-yl]-N-hydroxyacrylamide]
- IC50 (interleukin-6 (IL-6)): 20 nM
- IC50 [1]: 1090 ± 120 nM
- IC50 (nitric oxide (NO)): 7350 ± 830 nM
- IC50 (prostaglandin E2 (PGE2) [2]): 1360 ± 290 nM
- melting point: 156 to 157 °C

Compound: O=C(C=Cc1ccc2c(c1)CCN2S(=O)(=O)c1ccccc1)NO [Compound 7, 3-(1-Benzenesulfonyl-2,3-dihydro-1H-indol-5-yl)-N-hydroxyacrylamide]
- IC50 (interleukin-6 (IL-6)): 20 nM
- IC50 [1]: 990 ± 70 nM
- IC50 (nitric oxide (NO)): 4640 ± 120 nM
- IC50 (prostaglandin E2 (PGE2) [2]): 1680 ± 270 nM
